Experimental data published in patent US20200239530A1, “COMPOUNDS AND METHODS OF MODULATING PROTEIN DEGRADATION” (Vividion Therapeutics, Inc., priority 2017, published 2020).

Experiments:
Experiment in all cases: Cysteine liganding, probe competition
Type in all cases: binding
[1] = molecular target: T1, CDK16 Cyclin-dependent kinase 16 (Homo sapiens, UniProt Q00536); details: for Liganded: CDK16 Res# 206, uniprot Q00536
T1 construct: 200 μL of lysate containing 5 mg/ml proteome was treated with 2 μL of 100× compound stock; endogenous in cells
T1 sequence (Q00536 whole entry): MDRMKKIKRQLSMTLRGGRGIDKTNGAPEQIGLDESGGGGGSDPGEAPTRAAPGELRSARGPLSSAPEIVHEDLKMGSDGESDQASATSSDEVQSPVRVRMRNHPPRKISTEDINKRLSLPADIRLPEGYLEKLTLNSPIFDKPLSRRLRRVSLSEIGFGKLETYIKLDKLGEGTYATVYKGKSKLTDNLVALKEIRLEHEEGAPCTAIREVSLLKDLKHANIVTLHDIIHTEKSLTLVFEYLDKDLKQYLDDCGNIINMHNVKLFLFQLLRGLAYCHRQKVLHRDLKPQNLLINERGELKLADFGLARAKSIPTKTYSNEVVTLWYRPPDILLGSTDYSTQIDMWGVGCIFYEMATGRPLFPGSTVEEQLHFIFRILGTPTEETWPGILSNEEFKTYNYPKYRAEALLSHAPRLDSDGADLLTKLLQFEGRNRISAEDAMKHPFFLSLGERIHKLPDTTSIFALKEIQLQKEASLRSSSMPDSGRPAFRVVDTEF
How it was run: (§1)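 Read-out is loss of desthiobiotin iodoacetamide labelling at cysteines, measured on streptavidin-enriched tryptic peptides. Compound preincubation ran 1 hr at 25° C in PBS lysate holding 5 mg/ml proteome before the probe was added.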

[2] = molecular target: T2, CDK18 Cyclin-dependent kinase 18 (Homo sapiens, UniProt Q07002); details: for Liganded: CDK18 Res# 183, uniprot Q07002
T2 construct: 200 μL of lysate containing 5 mg/ml proteome was treated with 2 μL of 100× compound stock; endogenous in cells
T2 sequence (Q07002 whole entry): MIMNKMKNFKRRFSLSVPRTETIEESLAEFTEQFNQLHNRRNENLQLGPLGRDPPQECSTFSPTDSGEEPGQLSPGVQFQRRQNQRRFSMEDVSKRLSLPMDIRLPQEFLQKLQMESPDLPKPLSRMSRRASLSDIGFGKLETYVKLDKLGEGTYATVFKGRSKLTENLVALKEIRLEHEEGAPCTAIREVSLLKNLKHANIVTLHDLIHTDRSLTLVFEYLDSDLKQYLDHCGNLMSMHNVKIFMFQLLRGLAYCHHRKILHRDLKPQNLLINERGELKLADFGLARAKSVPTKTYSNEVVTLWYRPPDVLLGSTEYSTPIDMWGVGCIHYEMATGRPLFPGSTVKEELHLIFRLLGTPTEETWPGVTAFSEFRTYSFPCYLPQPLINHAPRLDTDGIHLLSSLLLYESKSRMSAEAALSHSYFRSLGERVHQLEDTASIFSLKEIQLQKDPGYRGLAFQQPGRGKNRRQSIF
How it was run: as §1

[3] = molecular target: T3, NOP56 Nucleolar protein 56 (Homo sapiens, UniProt O00567)
T3 construct: Cells were resuspended in cold PBS on ice and sonicated with a probe sonicator to achieve lysis; endogenous in cells
T3 sequence (O00567 1-594): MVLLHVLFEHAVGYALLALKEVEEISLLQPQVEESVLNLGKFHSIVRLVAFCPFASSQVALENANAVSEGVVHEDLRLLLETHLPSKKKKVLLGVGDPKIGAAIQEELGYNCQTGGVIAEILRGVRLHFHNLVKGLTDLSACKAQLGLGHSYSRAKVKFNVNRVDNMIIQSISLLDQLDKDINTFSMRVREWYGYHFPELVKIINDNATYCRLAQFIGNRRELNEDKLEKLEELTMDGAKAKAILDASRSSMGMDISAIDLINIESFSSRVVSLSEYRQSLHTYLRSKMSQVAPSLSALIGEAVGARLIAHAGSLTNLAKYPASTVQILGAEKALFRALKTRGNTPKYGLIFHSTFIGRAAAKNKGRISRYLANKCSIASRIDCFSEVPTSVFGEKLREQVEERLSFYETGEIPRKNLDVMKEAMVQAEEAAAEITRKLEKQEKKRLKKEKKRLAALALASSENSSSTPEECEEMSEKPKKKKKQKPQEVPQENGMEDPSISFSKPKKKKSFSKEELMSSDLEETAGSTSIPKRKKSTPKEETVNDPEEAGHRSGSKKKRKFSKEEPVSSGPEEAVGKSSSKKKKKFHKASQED
How it was run: as §1

[4] = molecular target: T4, PRMT5 Protein arginine N-methyltransferase 5 (Homo sapiens, UniProt O14744)
T4 construct: Cells were resuspended in cold PBS on ice and sonicated with a probe sonicator to achieve lysis; endogenous in cells
T4 sequence (O14744 whole entry): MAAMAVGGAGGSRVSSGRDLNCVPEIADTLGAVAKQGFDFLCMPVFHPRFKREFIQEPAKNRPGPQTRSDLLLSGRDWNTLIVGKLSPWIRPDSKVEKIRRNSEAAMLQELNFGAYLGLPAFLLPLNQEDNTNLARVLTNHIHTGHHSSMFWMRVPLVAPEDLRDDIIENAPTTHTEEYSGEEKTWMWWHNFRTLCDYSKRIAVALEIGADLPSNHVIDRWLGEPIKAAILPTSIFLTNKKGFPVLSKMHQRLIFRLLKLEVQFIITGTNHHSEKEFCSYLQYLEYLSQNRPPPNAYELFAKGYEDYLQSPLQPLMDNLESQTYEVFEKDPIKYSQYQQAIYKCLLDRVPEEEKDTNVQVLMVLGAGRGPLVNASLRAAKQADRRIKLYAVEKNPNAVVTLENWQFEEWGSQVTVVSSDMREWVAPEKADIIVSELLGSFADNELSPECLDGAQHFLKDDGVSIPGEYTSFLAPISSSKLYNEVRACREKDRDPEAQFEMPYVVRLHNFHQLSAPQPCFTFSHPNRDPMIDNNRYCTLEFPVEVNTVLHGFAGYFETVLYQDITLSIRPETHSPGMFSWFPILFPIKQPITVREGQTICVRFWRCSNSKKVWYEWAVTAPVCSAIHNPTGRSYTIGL
T4 sequence (Q9BQA1 whole entry partner): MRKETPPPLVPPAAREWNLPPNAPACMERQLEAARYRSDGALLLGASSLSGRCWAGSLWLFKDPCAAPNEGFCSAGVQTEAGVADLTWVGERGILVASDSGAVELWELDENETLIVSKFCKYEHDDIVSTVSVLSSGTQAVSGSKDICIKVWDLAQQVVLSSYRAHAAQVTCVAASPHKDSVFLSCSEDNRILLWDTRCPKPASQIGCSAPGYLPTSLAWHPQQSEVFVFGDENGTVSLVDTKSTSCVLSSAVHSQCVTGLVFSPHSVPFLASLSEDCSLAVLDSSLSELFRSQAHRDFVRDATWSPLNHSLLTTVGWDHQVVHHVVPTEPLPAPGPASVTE
How it was run: as §1

TAPBP Tapasin = molecular target: T5, TAPBP Tapasin (Homo sapiens, UniProt O15533)
T5 construct: Cells were resuspended in cold PBS on ice and sonicated with a probe sonicator to achieve lysis; endogenous in cells
T5 sequence (O15533 21-448): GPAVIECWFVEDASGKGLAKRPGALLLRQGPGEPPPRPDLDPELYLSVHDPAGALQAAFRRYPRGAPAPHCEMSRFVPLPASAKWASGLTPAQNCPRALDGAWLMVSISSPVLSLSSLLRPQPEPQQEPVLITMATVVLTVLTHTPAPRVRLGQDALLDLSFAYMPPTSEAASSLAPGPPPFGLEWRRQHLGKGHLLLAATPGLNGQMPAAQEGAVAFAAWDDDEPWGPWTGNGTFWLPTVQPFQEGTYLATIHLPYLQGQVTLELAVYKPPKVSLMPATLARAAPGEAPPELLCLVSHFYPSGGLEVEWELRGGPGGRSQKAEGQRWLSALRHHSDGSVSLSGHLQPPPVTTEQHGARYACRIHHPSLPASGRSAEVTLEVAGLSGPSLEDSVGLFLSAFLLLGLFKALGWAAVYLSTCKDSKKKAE
How it was run: as §1

[5] = uniprot O00567, in % (unit assumed)

`O=C(CCl)Nc1cc(C(F)(F)F)cc(C(F)(F)F)c1` [KBO3] was tested, and the Liganded [1] was “YES”, the “100 Max” value ([1]; uniprot Q00536) was 50.67 and the 100 ave ([1]; uniprot Q00536) was 28.2075. The 500 ave ([1]; uniprot Q00536) was 79.225, the “500 Max” value ([1]; uniprot Q00536, in % (unit assumed)) was 80.44 and the Liganded [2] was “YES”. For the same molecule, the “100 Max” value ([2]; uniprot Q07002) was 50.67, the 100 ave ([2]; uniprot Q07002) was 28.2075 and the “500 Max” value ([2]; uniprot Q07002) was 80.44. For the same molecule, the 500 ave ([2]; uniprot Q07002) was 79.225, the 100 ave ([3]; uniprot O00567) was 27.36 and the 500 ave ([3]; uniprot O00567) was 68.12. The “100 Max” value [3, 5] was 51.21, the “500 Max” value [3, 5] was 68.12 and the 100 ave ([4]; uniprot O14744) was 16.62. The “500 Max” value ([4]; uniprot O14744) was 45.47, the 500 ave ([4]; uniprot O14744) was 45.47 and the “100 Max” value ([4]; uniprot O14744, in % (unit assumed)) was 16.62. For the same molecule, the “100 Max” value (TAPBP Tapasin; uniprot O15533) was 31.4264, the 100 ave (TAPBP Tapasin; uniprot O15533) was 28.54 and the “500 Max” value (TAPBP Tapasin; uniprot O15533) was 68.7451. For the same molecule, the 500 ave (TAPBP Tapasin; uniprot O15533) was 68.7451.
`COc1ccc2c(c1)CCCN2C(=O)CCl` [KB02] was tested, and the Liganded [1] was “YES”, the Liganded [2] was “YES” and the Liganded ([3]; NOP56 Res# 211, uniprot O00567) was “YES”. The Liganded ([4]; PRMT5 Res# 278, uniprot O14744) was “YES” and the Liganded (TAPBP Tapasin; TAPBP Res# 440, uniprot O15533) was “YES”.
